Laboratory results reported in US20250221979A1, “NOVEL HETEROCYCLIC COMPOUND” (SHOUYAO HOLDINGS (BEIJING) CO., LTD., priority 2022, published 2025).

Each compound was assayed against human MAT2A enzyme (Homo sapiens (Human), UniProt P31153) (assay: In vitro enzymatic inhibition activity assay on MAT2A (PiColorLock phosphate detection)). Conditions: purified human MAT2A 10 nM, ATP 50 μM, L-methionine 100 μM, 6 h at 23° C.; read-out: MAT2A inhibitory activity IC50.
Format: biochemical
Procedure: Enzymatic activity assays of compounds of this patent against MAT2A (to detect half inhibitory concentration IC50 values of the compounds) were performed using the phosphate detection kit PiColorLockTM (ab270004, purchased from Abcam). This method utilized the principle that purified human MAT2A enzyme catalyzes the formation of S-adenosylmethionine (SAM) from L-methionine and ATP to release free phosphate, and used the spectrophotometric method to quantify phosphate, so as to determine the enzymatic activity of MAT2A. Compounds were diluted in a 10-fold gradient starting at 1 mM with 100% DMSO (for a total of 8 concentrations) and 2 μL of each concentration was added to 48 μL of reaction buffer (50 mM Tris-HCl PH 7.5, 50 mM KCl, 10 mM MgCl2, 0.01% Brij-35, 0.01% BSA, 1 mM DTT) and mixed well. The final diluted compound was prepared, and 5 μL of MAT2A enzyme (final concentration of 10 nM), 5 μL of ATP (final concentration of 50 μM), and 5 μL of L-methionine (final concentration of 100 μM) were added to each well of a 384-well plate (#3701, purchased from CORNING). After the 384-well plate was placed in the incubator at 23° C. for 6 h, 5 μL of PiColorLock reagent diluted Accelerator (dilution ratio 1:100) was added to each well, and the reaction was stopped by incubating in the incubator at 23° C. for 5 min. 2 μL of Stabiliser was added, the absorbance was read at 630 nm on BMG CLARIOstar, and the IC50 value of the compound was calculated by using GraphPad Prism software.
Under the conditions of this experiment, the inhibition of MAT2A by test compounds can be expressed as an IC50 value for the inhibition of the level of phosphate production during the enzymatic reaction.

human MAT2A enzyme, sequence (P31153 whole entry): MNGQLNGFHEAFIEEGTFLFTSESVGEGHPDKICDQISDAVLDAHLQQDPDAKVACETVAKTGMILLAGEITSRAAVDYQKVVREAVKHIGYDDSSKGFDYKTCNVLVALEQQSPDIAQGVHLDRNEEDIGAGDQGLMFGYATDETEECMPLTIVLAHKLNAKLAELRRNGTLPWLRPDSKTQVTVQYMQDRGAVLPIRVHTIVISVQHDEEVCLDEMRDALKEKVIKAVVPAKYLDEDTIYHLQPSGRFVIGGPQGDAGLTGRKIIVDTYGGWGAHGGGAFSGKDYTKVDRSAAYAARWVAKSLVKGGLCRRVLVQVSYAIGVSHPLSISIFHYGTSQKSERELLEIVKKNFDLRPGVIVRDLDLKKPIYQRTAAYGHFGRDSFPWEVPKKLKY

Compared with `COC(=O)c1c(N)c2ccc(C(F)(F)F)cc2n(-c2ccc(I)cc2)c1=O` [Example 125, methyl 4-amino-1-(4-iodophenyl)-2-oxo-7-(trifluoromethyl)-1,2-dihydroquinoline-3-carboxylate], `C=Cc1ccc(-n2c(=O)c(C(=O)OC)c(N)c3ccc(C(F)(F)F)cc32)cc1` [Example 132, methyl 4-amino-2-oxo-7-(trifluoromethyl)-1-(4-vinylphenyl)-1,2-dihydroquinoline-3-carboxylate] is 1.8-fold higher in IC50: 2.67 nM for the first, 4.91 nM for the second. The first is the more potent here.

Compared with `COC(=O)c1c(N)c2ccc(C(F)(F)F)cc2n(-c2ccc3ocnc3c2)c1=O` [Example 128, methyl 4-amino-1-(benzo(2,1-d)(1,3)oxazol-5-yl)-2-oxo-7-(trifluoromethyl)-1,2-dihydroquinoline-3-carboxylate], `COC(=O)c1c(N)c2ccc(C(F)(F)F)cc2n(-c2ccc3occc3c2)c1=O` [Example 196, methyl 4-amino-1-(6-benzofuran-5-yl)-2-oxo-7-(trifluoromethyl)-1,2-dihydro quinoline-3-carboxylate] is 4.3-fold lower in IC50: 3.49 nM for the first, 0.81 nM for the second. The second is the more potent here.

Going from `COC(=O)c1c(N)c2ccc(Br)cc2n(-c2ccc([N+](=O)[O-])cc2)c1=O` [Example 130, methyl 4-amino-2-oxo-7-bromo-1-(4-nitrophenyl)-1,2-dihydroquinoline-3-carboxylate] to `[2H]C([2H])([2H])OC(=O)c1c(N)c2ccc(Br)cc2n(-c2ccc(N)cc2)c1=O` [Example 189, methyl-d3 4-amino-1-(4-aminophenyl)-7-bromo-2-oxo-1,2-dihydroquinolin-3-carboxylate], the IC50 falls from 5.99 nM to 0.32 nM (19-fold).

`C#Cc1ccc(-n2c(=O)c(C(=O)OC)c(N)c3ccc(C(F)(F)F)cc32)cc1` [Example 133, methyl 4-amino-1-(4-ethynylphenyl)-2-oxo-7-(trifluoromethyl)-1,2-dihydroquinoline-3-carboxylate] and `CCc1ccc(-n2c(=O)c(C(=O)OC)c(N)c3ccc(C(F)(F)F)cc32)cc1` [Example 155, methyl 4-amino-1-(4-ethylphenyl)-2-oxo-7-(trifluoromethyl)-1,2-dihydroquinoline-3-carboxylate] are within 1.5-fold of each other in IC50: 2.79 nM for the first, 1.93 nM for the second.

First: COC(=O)c1c(N)c2ccc(C3CC3)cc2n(-c2ccc(Cl)cc2)c1=O [Example 134, methyl 4-amino-1-(4-chlorophenyl)-7-cyclopropyl-2-oxo-1,2-dihydro quinoline-3-carboxylate]
Second: COC(=O)c1c(N)c2ccc(C(F)(F)F)cc2n(-c2ccc(C=O)cc2)c1=O [Example 164, methyl 4-amino-1-(4-formylphenyl)-2-oxo-7-(trifluoromethyl)-1,2-dihydroquinoline-3-carboxylate]
The IC50 of the first is 3.8-fold lower: 2.01 nM for the first, 7.58 nM for the second. The first is the more potent here.

Going from `COC(=O)c1c(N)c2ccc(C(F)(F)F)cc2n(-c2ccc3c(c2)CCC3O)c1=O` (stereo not drawn) [Example 135, methyl 4-amino-1-(1-hydroxy-2,3-dihydro-1H-inden-5-yl)-2-oxo-7-(trifluoromethyl)-1,2-dihydroquinoline-3-carboxylate] to `COC(=O)c1c(N)c2ccc(C(F)(F)F)cc2n(-c2ccc3c(c2)C(O)CC3)c1=O` (stereo not drawn) [Example 137, methyl 4-amino-1-(3-hydroxy-2,3-dihydro-1H-inden-5-yl)-2-oxo-7-(trifluoromethyl)-1,2-dihydroquinoline-3-carboxylate], the IC50 falls from 8.85 nM to 3.34 nM (2.6-fold). The second is the more potent here.

`CCc1ccccc1-n1c(=O)c(C(=O)OC)c(N)c2ccc(C(F)(F)F)cc21` [Example 145, methyl 4-amino-1-(2-ethylphenyl)-2-oxo-7-(trifluoromethyl)-1,2-dihydroquinoline-3-carboxylate] and `COC(=O)c1c(N)c2ccc(C(F)(F)F)cc2n(-c2ccc(C)cc2C)c1=O` [Example 149, methyl 4-amino-1-(2,4-dimethylphenyl)-2-oxo-7-(trifluoromethyl)-1,2-dihydroquinoline-3-carboxylate] are within 1.5-fold of each other in IC50: 4.6 nM for the first, 3.12 nM for the second.

`COC(=O)c1c(N)c2ccc(C(F)(F)F)cc2n(-c2ccc3c(c2)CCC3(C)O)c1=O` (stereo not drawn) [Example 148, methyl 4-amino-1-(1-hydroxy-1-methyl-2,3-dihydro-1H-inden-5-yl)-2-oxo-7-(trifluoromethyl)-1,2-dihydroquinoline-3-carboxylate] and `COC(=O)c1c(N)c2ccc(C(F)(F)F)cc2n(-c2ccc(C(C)O)c(F)c2)c1=O` (stereo not drawn) [Example 158, methyl 4-amino-1-(3-fluoro-4-(1-hydroxyethyl)phenyl)-2-oxo-7-(trifluoromethyl)-1,2-dihydroquinoline-3-carboxylate] are within 1.5-fold of each other in IC50: 2.83 nM for the first, 3.83 nM for the second.

Compared with `COC(=O)c1c(N)c2ccc(C(F)(F)F)nc2n(-c2ccccc2)c1=O` [Example 150, methyl 4-amino-2-oxo-1-phenyl-7-(trifluoromethyl)-1,2-dihydro-1,8-naphthyridine-3-carboxylate], `COC(=O)c1c(N)c2ccc(C(F)(F)F)nc2n(-c2cnc(Cl)cc2C)c1=O` [Example 204, methyl 4-amino-1-(6-chloro-4-methylpyridin-3-yl)-2-oxo-7-(trifluoromethyl)-1,2-dihydro-1,8-naphthyridine-3-carboxylate] is 2.8-fold higher in IC50: 1.66 nM for the first, 4.62 nM for the second.

Going from `COC(=O)c1c(N)c2ccc(C(F)(F)F)cc2n(-c2ccc(Cl)cc2C)c1=O` [Example 151, methyl 4-amino-1-(4-chloro-2-methylphenyl)-2-oxo-7-(trifluoromethyl)-1,2-dihydroquinoline-3-carboxylate] to `COC(=O)c1c(N)c2ccc(Br)cc2n(-c2ccc(Cl)cc2C)c1=O` [Example 152, methyl 4-amino-7-bromo-1-(4-chloro-2-methylphenyl)-2-oxo-1,2-dihydroquinoline-3-carboxylate], the IC50 falls from 2.86 nM to 1.64 nM (1.7-fold).

Compared with `COC(=O)c1c(N)c2ccc(C(F)(F)F)cc2n(-c2ccc3sccc3c2)c1=O` [Example 153, methyl 4-amino-1-(benzo[b]thiophen-5-yl)-2-oxo-7-(trifluoromethyl)-1,2-dihydroquinoline-3-carboxylate], `COC(=O)c1c(N)c2ccc(C(F)(F)F)cc2n(-c2ccc3ccoc3c2)c1=O` [Example 187, methyl 4-amino-1-(1-benzofuran-6-yl)-2-oxo-7-(trifluoromethyl)-1,2-dihydroquinoline-3-carboxylate] is 3.4-fold lower in IC50: 2.62 nM for the first, 0.76 nM for the second. The second is the more potent here.

Compared with `COC(=O)c1c(N)c2ccc(C(F)(F)F)cc2n(-c2cn[nH]c2)c1=O` [Example 159, methyl 4-amino-2-oxo-1-(1H-pyrazol-4-yl)-7-(trifluoromethyl)-1,2-dihydroquinoline-3-carboxylate], `COC(=O)c1c(N)c2ccc(C(F)(F)F)cc2n(-c2ccc(N)nc2)c1=O` [Example 182, methyl 4-amino-1-(6-aminopyridin-3-yl)-2-oxo-7-(trifluoromethyl)-1,2-dihydroquinoline-3-carboxylate] is 2.5-fold lower in IC50: 2.87 nM for the first, 1.16 nM for the second. The second is the more potent here.

Going from `COC(=O)c1c(N)c2ccc(Br)cc2n(-c2cnc(Cl)cc2C)c1=O` [Example 161, methyl 4-amino-7-bromo-1-(6-chloro-4-methylpyridin-3-yl)-2-oxo-1,2-dihydroquinoline-3-carboxylate] to `COC(=O)c1c(N)c2ccc(Br)cc2n(-c2ccc(OC)nc2)c1=O` [Example 211, methyl 4-amino-7-bromo-1-(6-methoxypyridin-3-yl)-2-oxo-1,2-dihydroquinoline-3-carboxylate], the IC50 falls from 4.67 nM to 1.84 nM (2.5-fold). The second is the more potent here.

Compared with `COC(=O)c1c(N)c2ccc(Br)cc2n(-c2ccc(N)c3cnccc23)c1=O` [Example 178, methyl 4-amino-1-(8-aminoisoquinolin-5-yl)-7-bromo-2-oxo-1,2-dihydroquinoline-3-carboxylate], `COC(=O)c1c(N)c2ccc(C)cc2n(-c2cccc3cnccc23)c1=O` [Example 205, methyl 4-amino-1-(isoquinolin-5-yl)-7-methyl-2-oxo-1,2-dihydroquinoline-3-carboxylate] is 1.7-fold higher in IC50: 2.59 nM for the first, 4.47 nM for the second.

Compared with `C=Cc1ccc2c(N)c(C(=O)OC)c(=O)n(-c3cccc4cnccc34)c2c1` [Example 185, methyl 4-amino-1-(isoquinolin-5-yl)-2-oxo-7-vinyl-1,2-dihydroquinoline-3-carboxylate], `COC(=O)c1c(N)c2ccc(Cl)nc2n(-c2cccc3cnccc23)c1=O` [Example 201, methyl 4-amino-7-chloro-1-(isoquinolin-5-yl)-2-oxo-1,2-dihydro-1,8-naphthyridine-3-carboxylate] is 1.7-fold lower in IC50: 8.94 nM for the first, 5.38 nM for the second. The second is the more potent here.

Compared with `COC(=O)c1c(N)c2ccc(C(F)(F)F)cc2n(-c2cccc3ccncc23)c1=O` [Example 192, methyl 4-amino-1-(isoquinolin-8-yl)-2-oxo-7-(trifluoromethyl)-1,2-dihydro quinoline-3-carboxylate], `COC(=O)c1c(N)c2ccc(C(F)(F)F)cc2n(-c2ccc(OC)nc2)c1=O` [Example 212, methyl 4-amino-1-(6-methoxypyridin-3-yl)-2-oxo-7-(trifluoromethyl)-1,2-dihydroquinoline-3-carboxylate] is 2.3-fold lower in IC50: 6.47 nM for the first, 2.83 nM for the second. The second is the more potent here.

Work on `COC(=O)c1c(N)c2ccc(Br)cc2n(-c2cccc3nccn23)c1=O` [Example 195, methyl 4-amino-7-bromo-1-(imidazo(3,2-a)pyridin-5-yl)-2-oxo-1,2-dihydro quinoline-3-carboxylate] yielded an IC50 of 4.91 nM.
